From PMC3699521, “ZrFsy1, a High-Affinity Fructose/H^+ Symporter from Fructophilic Yeast Zygosaccharomyces rouxii” (PLoS ONE, 2013)

Molecular target: T1, ZrFsy1 (Zygosaccharomyces rouxii, UniProt C5DSI4)
T1 construct: gene ZYRO0C00374g; full length, 564 residues, C-terminal GFP tag, multicopy plasmid pZRS1-S (own promoter), expressed in S. cerevisiae hxt-null EBY.VW4000
T1 sequence (C5DSI4 1-564): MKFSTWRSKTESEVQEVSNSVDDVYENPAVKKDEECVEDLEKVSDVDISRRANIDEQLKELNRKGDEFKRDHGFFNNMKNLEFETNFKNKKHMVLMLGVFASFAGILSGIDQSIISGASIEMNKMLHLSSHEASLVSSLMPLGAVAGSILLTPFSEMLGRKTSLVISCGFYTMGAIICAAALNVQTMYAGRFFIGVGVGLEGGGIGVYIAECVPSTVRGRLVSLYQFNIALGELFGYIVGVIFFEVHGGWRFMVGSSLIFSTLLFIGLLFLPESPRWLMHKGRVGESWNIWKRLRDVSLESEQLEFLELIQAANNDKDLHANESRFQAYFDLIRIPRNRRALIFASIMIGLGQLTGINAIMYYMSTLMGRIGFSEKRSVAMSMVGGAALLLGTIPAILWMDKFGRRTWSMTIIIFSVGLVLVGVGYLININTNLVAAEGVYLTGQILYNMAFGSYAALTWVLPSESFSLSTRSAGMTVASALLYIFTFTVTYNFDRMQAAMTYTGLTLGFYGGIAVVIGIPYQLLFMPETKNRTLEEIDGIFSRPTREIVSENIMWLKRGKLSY
Assay: inhibition of [U-14C]fructose uptake; extracellular alkalinisation on sorbose pulse
Format: cell-based
Settings: competitor of labelled fructose; 10 mM sorbose, 25 °C, pH 5 in the proton symport assay; D / L form not stated

OCC1(O)OC[C@H](O)[C@@H](O)[C@@H]1O (stereo partly shown) [sorbose]
inhibition of [U-14C]fructose uptake; extracellular alkalinisation on sorbose pu: transport of radioactive fructose by ZrFsy1 was inhibited by sorbose but not by glucose
